Assay results taken from US5955616A, “Pyrrolidine derivatives having phospholipase A2 inhibitory activity” (Shionogi & Co., Ltd., priority 1995, dated 1999).

Assays:
[1] = test system: Prostaglandin E2 production in human fibroblasts; test: Inhibition of Production of Prostaglandin E2 in Human Fibroblasts (IL-1 stimulated); format: cell-based; conditions: Fibroblast, stimulation with IL-1, read-out: Inhibitory activity Against the Production of Prostaglandin E2 in Human Fibroblasts IC50
Experimental: Experiment 2 Inhibition of Production of Prostaglandin E2 in Human Fibroblasts
From this viewpoint, the compounds of the present invention were tested for the effect on the production of prostaglandin E2 by human fibroblasts under the stimulation with IL-1 according to the method of J. M. Dayer et al (CACHECTIN/TUMOR NECROSIS FACTOR STIMULATES COLLAGENASE AND PROSTAGLANDIN E2 PRODUCTION BY HUMAN SYNOVIAL CELLS AND DERMAL FIBROBLASTS; J. M. Dayer, B. Beutlerm and A. Cerami, J. Exp. Med., 162,2163-2168, 1985).

cPLA2 = target: T1, cPLA2 (Homo sapiens, UniProt P47712); test: cPLA2 Inhibitory activity (release of radiolabelled fatty acid from liposomes); format: biochemical; conditions: 50 mM HEPES pH 7.4, 1 mM CaCl2, 2.5 μM radio-labeled phosphatidylcholine, 15 min at 37° C; read-out: cPLA2 Inhibition Activity IC50
T1 sequence (P47712 1-749): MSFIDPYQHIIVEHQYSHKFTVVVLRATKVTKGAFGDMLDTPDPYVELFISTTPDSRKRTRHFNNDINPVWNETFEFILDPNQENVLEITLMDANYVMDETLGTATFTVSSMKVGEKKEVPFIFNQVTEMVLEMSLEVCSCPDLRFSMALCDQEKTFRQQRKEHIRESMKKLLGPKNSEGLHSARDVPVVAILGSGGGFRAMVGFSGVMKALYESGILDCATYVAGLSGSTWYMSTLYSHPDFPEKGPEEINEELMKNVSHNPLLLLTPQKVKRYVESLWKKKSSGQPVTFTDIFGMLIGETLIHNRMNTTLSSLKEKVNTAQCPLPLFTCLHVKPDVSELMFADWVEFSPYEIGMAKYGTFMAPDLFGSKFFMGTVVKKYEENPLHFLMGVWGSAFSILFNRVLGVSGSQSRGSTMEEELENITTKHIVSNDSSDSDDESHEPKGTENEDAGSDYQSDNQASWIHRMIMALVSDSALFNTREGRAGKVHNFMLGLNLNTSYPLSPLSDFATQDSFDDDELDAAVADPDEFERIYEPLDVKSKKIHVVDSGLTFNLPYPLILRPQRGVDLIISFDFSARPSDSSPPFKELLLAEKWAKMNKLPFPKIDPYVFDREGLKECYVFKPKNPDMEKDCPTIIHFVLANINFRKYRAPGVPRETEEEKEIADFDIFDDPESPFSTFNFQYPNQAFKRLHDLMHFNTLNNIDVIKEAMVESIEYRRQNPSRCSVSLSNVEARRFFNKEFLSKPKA
Experimental: Experiment 1 cPLA2 Inhibitory activity
The compounds of the present invention was tested for the cPLA2 inhibitory activity by a method known in a literature (R. M. Kramer, E. F. Roberts, J. Manetta and J. E. Putnam, J. Biol. Chem., 268(8), 5268-5272 ([…])), as outlined below.
As a substrate, liposomes which contain 1-palmitoyl-2-[^14 C]-arachidonoyl-sn-glycero-3-phosphocholine and sn-1,2-dioleoylglycerol at the ratio of 2:1 and have treated ultrasonically were used. The substrate was added to a 50 mM HEPES buffer (pH 7.4) (200 μl) containing 1 mM CaCl2, 2 mM dithiothreitol, 150 mM NaCl, 0.1 mg/ml BSA so as to make the concentration of radio-labeled phosphatidylcholine 2.5 μM. To the solution was added a compound of the present invention in DMSO (10 μl) to obtain reaction solutions each containing the test compound at 250 μM, 50 μM, 10 μm, 2 μM, and 0.4 μM. The reaction was allowed to start by adding an enzyme (cPLA2) (4 ng) and continued for 15 min at 37° C.
The amount of fatty acids released by the reaction was measured on a liquid scintillation counter. Control was obtained by conducting the experiment in the same manner except that a compound of the present invention was not added. The inhibitory activity was expressed as percent (%) to the control value, which was used for the calculation of the concentration required for 50% inhibition (IC50, μM).

Row | SMILES | IC50 [1] | IC50 (cPLA2)
1 | O=C1NC(=O)C(=Cc2ccc(NC(=O)[C@@H]3C[C@H](SCc4ccccc4)CN3C(=O)c3ccccc3)cc2)S1 [Compound A-3] | 2.4 µM | 5.3 µM
2 | COc1c(C(C)(C)C)cc(CS[C@H]2C[C@@H](C(=O)Nc3ccc(C=C4SC(=O)NC4=O)cc3)N(C(=O)c3ccccc3)C2)cc1C(C)(C)C [Compound A-4] | 4.9 µM | 1.6 µM
3 | O=C1NC(=O)C(=Cc2ccc(NC(=O)[C@@H]3C[C@H](SCc4ccc5ccccc5c4)CN3C(=O)c3ccccc3)cc2)S1 [Compound A-5] | 7 µM | 3.6 µM
4 | O=C1NC(=O)C(=Cc2ccc(NC(=O)[C@@H]3C[C@H](SCc4ccc(-c5ccccc5)cc4)CN3C(=O)c3ccccc3)cc2)S1 [Compound A-6] | 8.2 µM | 3.3 µM
5 | O=C1NC(=O)C(=Cc2ccc(NC(=O)[C@@H]3C[C@H](SCc4ccc(C(F)(F)F)cc4)CN3C(=O)c3ccccc3)cc2)S1 [Compound A-7] | 4.5 µM | 5.3 µM
6 | O=C1NC(=O)C(=Cc2ccc(NC(=O)[C@@H]3C[C@H](SCc4ccc(C(F)(F)F)cc4C(F)(F)F)CN3C(=O)c3ccccc3)cc2)S1 [Compound A-8] | 2.5 µM | 4.8 µM
7 | COc1cc(CS[C@H]2C[C@@H](C(=O)Nc3ccc(C=C4SC(=O)NC4=O)cc3)N(C(=O)c3ccccc3)C2)cc(OC)c1OC [Compound A-9] | 3 µM | 5.1 µM
8 | CC(C)=CCCC(C)=CCS[C@H]1C[C@@H](C(=O)Nc2ccc(C=C3SC(=O)NC3=O)cc2)N(C(=O)c2ccccc2)C1 [Compound A-11] | 8.5 µM | 4.7 µM
9 | O=C1NC(=O)C(=Cc2ccc(NC(=O)[C@@H]3C[C@H](SC(c4ccccc4)c4ccccc4)CN3C(=O)c3ccccc3)cc2)S1 [Compound A-12] | 1.6 µM | 1.3 µM
10 | CC(C)S[C@H]1C[C@@H](C(=O)Nc2ccc(C=C3SC(=S)NC3=O)cc2)N(C(=O)OC(C)(C)C)C1 [Compound A-16] | 2.9 µM | 22 µM
11 | CC(C)(C)OC(=O)N1C[C@@H](SCc2ccccc2)C[C@H]1C(=O)Nc1ccc(C=C2SC(=S)NC2=O)cc1 [Compound A-17] | 3.2 µM | 6 µM
12 | CS[C@H]1C[C@@H](C(=O)Nc2ccc(C=C3SC(=O)NC3=O)cc2)N(C(=O)c2ccc(-c3ccccc3)cc2)C1 [Compound A-20] | 0.3 µM | 22 µM
13 | CS[C@H]1C[C@@H](C(=O)Nc2ccc(C=C3SC(=S)NC3=O)cc2)N(C(=O)c2ccc(-c3ccccc3)cc2)C1 [Compound A-21] | 1 µM | 18 µM
14 | O=C1NC(=S)SC1=Cc1ccc(NC(=O)[C@@H]2C[C@H](SCc3ccccc3)CN2C(=O)c2cccnc2)cc1 [Compound A-23] | 8.6 µM | 10 µM
15 | O=C1NC(=S)SC1=Cc1ccc(NC(=O)[C@@H]2C[C@H](SCc3ccccc3)CN2C(=O)c2ccncc2)cc1 [Compound A-24] | 4.9 µM | 9.2 µM
16 | CS[C@H]1C[C@@H](C(=O)Nc2ccc(C=C3SC(=O)NC3=O)cc2)N(C(=O)Cc2ccc(Br)cc2)C1 [Compound A-25] | 8 µM | 18 µM
17 | CS[C@H]1C[C@@H](C(=O)Nc2ccc(C=C3SC(=S)NC3=O)cc2)N(C(=O)Cc2ccc(Br)cc2)C1 [Compound A-26] | 1.8 µM | 2.8 µM
18 | CC(C)S[C@H]1C[C@@H](C(=O)Nc2ccc(C=C3SC(=S)NC3=O)cc2)N(C(=O)Cc2ccc(Br)cc2)C1 [Compound A-27] | 2.6 µM | 5.1 µM
19 | O=C1NC(=S)SC1=Cc1ccc(NC(=O)[C@@H]2C[C@H](SCc3ccccc3)CN2C(=O)Nc2ccccc2)cc1 [Compound A-28] | 0.73 µM | 8.3 µM
20 | O=C1NC(=S)SC1=Cc1ccc(NC(=O)[C@@H]2C[C@H](SCc3ccccc3)CN2C(=S)Nc2ccccc2)cc1 [Compound A-29] | 1.2 µM | 5.9 µM

Row | SMILES | IC50 [1] | IC50 (cPLA2)
21 | CCCCNC(=O)N1C[C@@H](SCc2ccccc2)C[C@H]1C(=O)Nc1ccc(C=C2SC(=S)NC2=O)cc1 [Compound A-30] | 0.51 µM | 16 µM
22 | CC(=O)Nc1c(Cl)cc(S(=O)(=O)N2C[C@@H](SCc3ccccc3)C[C@H]2C(=O)Nc2ccc(/C=C3\SC(=S)NC3=O)cc2)cc1Cl [Compound A-37] | 6.9 µM | 1.6 µM
23 | CC(=O)Nc1ccc(S(=O)(=O)N2C[C@@H](SCc3ccccc3)C[C@H]2C(=O)Nc2ccc(/C=C3\SC(=S)NC3=O)cc2)cc1 [Compound A-38] | 4.9 µM | 6.4 µM
24 | CC(C)(C)c1ccc(S(=O)(=O)N2C[C@@H](SCc3ccccc3)C[C@H]2C(=O)Nc2ccc(/C=C3\SC(=S)NC3=O)cc2)cc1 [Compound A-39] | 6 µM | 6.2 µM
25 | CS[C@H]1C[C@@H](C(=O)Nc2ccc(/C=C3\SC(=O)NC3=O)cc2)N(S(=O)(=O)c2c(Cl)cccc2Cl)C1 [Compound A-40] | 7.7 µM | 15 µM
26 | O=C1NC(=S)S/C1=C\c1ccc(NC(=O)[C@@H]2C[C@H](SCc3ccccc3)CN2S(=O)(=O)c2c(Cl)cccc2Cl)cc1 [Compound A-41] | 14 µM | 3.4 µM
27 | O=C1NC(=O)/C(=C/c2ccc(NC(=O)[C@@H]3C[C@H](SCc4ccccc4)CN3S(=O)(=O)c3ccc(-c4ccccc4)cc3)cc2)S1 [Compound A-42] | 3.8 µM | 14 µM
28 | O=C1NC(=S)S/C1=C\c1ccc(NC(=O)[C@@H]2C[C@H](SCc3ccccc3)CN2S(=O)(=O)c2ccc(-c3ccccc3)cc2)cc1 [Compound A-43] | 8.8 µM | 6.8 µM
29 | CS[C@H]1C[C@@H](C(=O)Nc2ccc(/C=C3\SC(=O)NC3=O)cc2)N(S(=O)(=O)c2ccc(-c3ccccc3)cc2)C1 [Compound A-44] | 1.5 µM | 7.4 µM
30 | O=C1NC(=S)S/C1=C\c1ccc(NC(=O)[C@@H]2C[C@H](SCc3ccccc3)CN2S(=O)(=O)Cc2c(Cl)cccc2Cl)cc1 [Compound A-53] | 0.83 µM | –
31 | O=C1NC(=O)C(=C(CO)c2ccc(NC(=O)[C@@H]3C[C@H](SCc4ccccc4)CN3C(=O)Cc3ccc(Br)cc3)cc2)S1 [Compound D-3] | 7.1 µM | –
32 | O=C1NC(=O)C(=C(CO)c2ccc(NC(=O)[C@@H]3CC(OC(c4ccccc4)c4ccccc4)CN3C(=O)c3ccccc3)cc2)S1 (some centres unmarked) [Compound I-1] | – | 26 µM
33 | O=C1NC(=O)C(=C(CO)c2ccc(NC(=O)C3CC(OC(c4ccccc4)(c4ccccc4)c4ccccc4)CN3C(=O)c3ccccc3)cc2)S1 (centres unmarked) [Compound I-2] | – | 3.5 µM
34 | O=C1NC(=O)/C(=C/c2ccc(NC(=O)[C@@H]3C[C@H](NCc4ccccc4)CN3C(=O)Cc3ccc(Br)cc3)cc2)S1 [Compound J-1] | – | 21 µM
35 | O=C1NC(=S)S/C1=C\c1ccc(NC(=O)[C@@H]2CCCN2C(=O)Cc2ccc(Br)cc2)cc1 [Compound L-1] | – | 5.3 µM
36 | O=C1NC(=O)/C(=C/c2ccc(NC(=O)[C@@H]3C[C@@H](SCc4ccccc4)CN3S(=O)(=O)c3ccc(-c4ccccc4)cc3)cc2)S1 [Compound M-1] | – | 23 µM
37 | O=C1NC(=O)/C(=C/c2ccc(NC(=O)[C@H]3C[C@H](SCc4ccccc4)CN3S(=O)(=O)c3ccc(-c4ccccc4)cc3)cc2)S1 [Compound M-2] | – | 15 µM
38 | O=C1NC(=O)/C(=C/c2ccc(NC(=O)[C@H]3C[C@@H](SCc4ccccc4)CN3S(=O)(=O)c3ccc(-c4ccccc4)cc3)cc2)S1 [Compound M-3] | – | 10 µM
39 | O=C1NC(=O)C(=Cc2ccc(COC3CC(CNC(=O)c4ccc(-c5ccccc5)cc4)N(C(=O)c4ccccc4)C3)cc2)S1 (centres unmarked) [Compound N-1] | – | 6.6 µM
